Experimental findings from publication PMC9133036 (Nature Communications, 2022) are described below.

Where “and” joins values, the source holds several entries; their conditions need not be identical. Equal values may be shown once.

Assay [1] deals with T1, OX2R T111A (Homo sapiens, UniProt O43614, T111A).
T1 construct: FLAG; expressed in transfected cells; host or cells: HEK293
T1 sequence (O43614 1-444 T111A): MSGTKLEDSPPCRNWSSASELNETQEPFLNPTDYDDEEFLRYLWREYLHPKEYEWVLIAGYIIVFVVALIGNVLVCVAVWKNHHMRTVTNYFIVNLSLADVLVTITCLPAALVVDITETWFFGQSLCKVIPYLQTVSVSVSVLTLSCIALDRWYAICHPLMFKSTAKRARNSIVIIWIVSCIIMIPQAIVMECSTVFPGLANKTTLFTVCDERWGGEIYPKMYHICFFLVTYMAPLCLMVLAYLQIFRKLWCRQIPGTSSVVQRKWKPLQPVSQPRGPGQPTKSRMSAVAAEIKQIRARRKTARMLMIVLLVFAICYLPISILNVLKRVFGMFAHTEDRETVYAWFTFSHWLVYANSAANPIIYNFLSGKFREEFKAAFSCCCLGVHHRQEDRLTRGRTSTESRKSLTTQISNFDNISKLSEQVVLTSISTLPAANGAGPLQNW
Put plainly: IP accumulation assay, OX2R T111A. The settings on record: for % IP accumulation: listed as OXB. Type of assay: cell-based. From the text:
(§1) The IP assay was adapted from a prior precedent. HEK293 cells were maintained in DMEM-high glucose (Millipore Sigma) supplemented with 5% fetal bovine serum (Corning) and penicillin-streptomycin (Millipore Sigma). Receptor constructs used were the full-length wild-type (or mutant) human OX1R and OX2R sequences cloned into pCDNA3. To enhance the Emax in the IP assay, a plasmid encoding full-length human Gαq subunit[66] was co-transfected into HEK293 cells with plasmids encoding orexin receptor constructs using Lipofectamine 3000 (Thermo Fisher). 24 h after transfection, the cells were plated on poly-D-lysine coated (Millipore Sigma) tissue culture-treated 96 well white plates with clear bottoms (Perkin Elmer) at 30,000 cells per well in Inositol-free DMEM (MP Biomedicals) supplemented with 5% fetal bovine serum, 4 mM L-glutamine (Millipore Sigma), penicillin-streptomycin, and about 5 uCi (5 ul) per ml myo-[2-3H] inositol (Perkin Elmer). The following day, the media was replaced with agonists that were diluted in HBSS (Millipore Sigma) containing 10 mM lithium chloride (Millipore Sigma) and incubated at 37 °C for 45 min. Then agonists were removed and cells were lysed on ice for 30 min with 10 mM formic acid (Millipore Sigma). 1.25 mg of poly-lysine coated YSI SPA beads (Perkin Elmer) was added to each well. The plates were mixed on an orbital shaker for 30 min. The plates were read on a MicroBeta scintillation counter (Perkin Elmer) the following day. IP accumulation assays on different constructs were performed in n ≥ 3 independent experiments (each done in duplicate), where n is shown in Supplementary Table 2.

In assay [2] the target is T2, OX2R1-406 (Homo sapiens, UniProt O43614).
T2 construct: the receptor construct contained residues 1–406 of wild-type human OX2R; expressed in transfected cells; host or cells: HEK293
T2 sequence (O43614 1-406): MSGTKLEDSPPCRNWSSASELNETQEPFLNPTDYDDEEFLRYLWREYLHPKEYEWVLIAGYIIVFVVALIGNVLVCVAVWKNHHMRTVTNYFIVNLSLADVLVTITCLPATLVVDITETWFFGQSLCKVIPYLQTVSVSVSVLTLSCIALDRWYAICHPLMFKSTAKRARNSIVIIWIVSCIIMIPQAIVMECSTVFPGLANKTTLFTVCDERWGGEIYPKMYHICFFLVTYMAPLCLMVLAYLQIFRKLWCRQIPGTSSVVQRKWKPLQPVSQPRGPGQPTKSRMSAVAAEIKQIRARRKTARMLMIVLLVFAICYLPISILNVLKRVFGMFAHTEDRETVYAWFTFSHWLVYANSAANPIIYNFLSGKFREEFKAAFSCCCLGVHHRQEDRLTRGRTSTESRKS
Put plainly: IP accumulation assay, C-terminally truncated OX2R1-406.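 On % IP accumulation: 100% is the full-length wild-type OX2R maximal IP response.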 Type of assay: cell-based. The settings on record: for % IP accumulation: OX2R C25 short; for Emax: relative to OX2R WT with the same ligand. As to the method:
The cloning, expression, purification, cryo-EM data collection, and structure determination for the two OX2R-G protein complexes described in this paper were carried out independently. For the OX2R-mGsqiN complex the receptor construct contained residues 1–406 of wild-type human OX2R (OX2R^1–406). […] The resulting construct was cloned into a modified pFastBac (ThermoFisher) baculovirus expression vector with the HA signal sequence followed by a FLAG tag at the N-terminus. We were unable to isolate a stable complex between OX2R and full-length wild-type Gαq using the co-expression and purification strategy described below. Instead, an engineered Gαq construct called mGαsqiN was made by modifying the chimeric Gα protein ‘mini-Gs/q71’ previously described. Briefly, the linker […] was deleted and residues 1–27 at the N terminus was replaced by residues 1–30 of Gαi1. A second pFastBac baculovirus was made with this mini-GαqiN gene. An additional pFastBac-Dual baculovirus was made with human Gβ1 and human […] genes. An 8xHis tag was placed at the N-terminus of […]. […] After 48 h, cells were harvested and stored at −80 °C.
as §1

Turning to `COC(=O)N1CCC[C@H](NS(C)(=O)=O)[C@@H]1CO[C@H]1CC[C@@H](c2ccccc2)CC1` [TAK-925, methyl (2R,3S)−3-[(methylsulfonyl)amino]−2-{[(cis−4-phenylcyclohexyl)oxy]methyl}piperidine-1-carboxylate], the results for the concentration for a half-maximal effect (EC50) in assay [1] (IP accumulation) and in assay [2] (IP accumulation) were 2.1 µM and 0.0054 µM, respectively. The Emax is listed as 53 in assay [1] (relative to OX2R WT/TAK-925) and 100 in assay [2]. For the same molecule, the “% IP accumulation” value in assay [2] (TAK-925 conc (log, M) -7.39) was 102.09% and 80.64% and 87.71% and 69.65% and 70.45% and 93.38%; in assay [2] (TAK-925 conc (log, M) -7.86), 87.29% and 59.28% and 70.66% and 54.93% and 62.49% and 77.19%.
As for orexin B, the “% IP accumulation” value in assay [1] (OXB conc (log, M) -6.95) was 23.30% and 22.94% and 22.04%; in assay [1] (OXB conc (log, M) -7.43), 18.33% and 16.23% and 14.57%; in assay [1] (OXB conc (log, M) -7.91), 15.27% and 13.44% and 11.80%; in assay [2] (OXB conc (log, M) -6.95, listed as OXB), 116.05% and 97.72% and 102.67% and 64.00% and 80.15% and 76.35% and 110.96%; in assay [2] (OXB conc (log, M) -7.43, listed as OXB) it was 91.34% and 86.13% and 87.29% and 57.27% and 82.96% and 71.01% and 111.84%; in assay [2] (OXB conc (log, M) -7.91, listed as OXB), 79.86% and 83.63% and 74.72% and 64.39% and 71.59% and 62.47% and 94.62%. The “% IP accumulation” value in assay [2] (OXB conc (log, M) -8.39, listed as OXB) was 46.18% and 59.23% and 44.98% and 53.61% and 63.91% and 47.69% and 72.05%; in assay [2] (OXB conc (log, M) -9.82, listed as OXB), 4.24% and 6.17% and 0.00% and 5.40% and 1.80% and 6.02% and 6.79%; in assay [2] (OXB conc (log, M) -10.29, listed as OXB), 0.00% and 3.23%. The molecule also gave an Emax in assay [2] of 100.
